Where two headings read alike, the source gives them in different places.
Legend:
Format in all cases: in vivo
[1] = tested on: maximal electroshock (MES) seizures; assay: MES test after oral administration in rats (screen and quantification); conditions: p.o., 30 mg/kg
Procedure: This screen discloses the time of onset, the approximate time of peak effect (TPE) and the duration of anticonvulsant activity or neurotoxicity.
The quantitative evaluation of the MES median effective dose (ED50) and toxic dose (TD50) was performed at previously estimated TPE—2 h.
(§1) Phase I of the in vivo studies involved three tests: MES, scPTZ and rotarod test for NT. Male albino mice (CF#1 strain, weighing 18–25 g) and male albino rats (Sprague–Dawley) were used as experimental animals. The animals were housed in metabolic cages and allowed free access to food and water. The compounds were injected intraperitoneally to mice as a suspension in 0.5 % methylcellulose/water mixture at a dose level 30, 100 or 300 mg/kg with anticonvulsant activity and neurotoxicity assessment at 0.5 and 4 h after administration. Promising derivatives from phase I underwent phase VIa in which they were administrated orally into rats at a fixed dose of 30 mg/kg for both MES and the rotarod toxicity determination at five pretreatment times: 0.25, 0.5, 1, 2, 4 h. Groups of eight mice or four rats are employed.
In the MES screen, an electrical stimulus of 0.2 s in duration (50 mA in mice and 150 mA in rats) is delivered via corneal electrodes primed with an electrolyte solution containing an anesthetic agent. The endpoint is the tonic extension of the hind limbs. […] Mice not displaying hind limb tonic extension are considered to be protected from seizures.

[2] = tested on: pentylenetetrazole-induced seizures; assay: Subcutaneous pentylenetetrazole (scPTZ) test, i.p. administration in mice; conditions: Mus musculus, ip, doses of 30, 100 or 300 mg/kg
Procedure: (§2) Considering the aforementioned facts, the profile of anticonvulsant activity of final compounds 3–24 was established in the MES and scPTZ tests, after intraperitoneal (i.p.) injection in mice at doses of 30, 100 and 300 mg/kg. An observation was carried out at two different time intervals—0.5 and 4 h. Furthermore, in addition to the primary anticonvulsant screening, the acute neurological toxicity (NT) was determined in mice by the rotarod test.
(§3) Compounds 3–24 were pharmacologically preevaluated within the Antiepileptic Drug Development (ADD) Program in Epilepsy Branch, Neurological Disorders Program, National Institute of the Neurological and Communicative Disorders and Stroke (NIH/NINDS), Rockville, MD, USA, by using procedures described elsewhere (Krall et al., [1978]; Kupferberg, [1989]).
as §1
The scPTZ test utilizes a dose of pentylenetetrazole (85 mg/kg in mice) that produces clonic seizures lasting for a period of at least 5 s in 97 % (CD97) of animals tested. PTZ is administered 0.5 and 4 h after injections of tested compounds, and observation is carried out for 30 min. In the control groups, the first episode of clonic convulsions is observed between 6 and 15 min of observation. The absence of clonic convulsions in the observed time period of […] is interpreted as the compound’s ability to protect against PTZ-induced seizures.

[3] = tested on: maximal electroshock (MES) seizures; assay: Maximal electroshock (MES) test, i.p. administration in mice; conditions: Mus musculus, ip, doses of 30, 100 or 300 mg/kg
Procedure: as §2, §3, §1
In the MES screen, an electrical stimulus of 0.2 s in duration (50 mA in mice and 150 mA in rats) is delivered via corneal electrodes primed with an electrolyte solution containing an anesthetic agent. The endpoint is the tonic extension of the hind limbs. In the control groups, the procedures cause immediate hind limb tonic extension. Mice not displaying hind limb tonic extension are considered to be protected from seizures.

mice (rotarod test) = assay: Neurotoxicity screening (NT), rotarod test, i.p. administration in mice
Procedure: as §2, §1
The neurological toxicity test (NT) induced by a compound was detected in mice or rats using standardized rotarod test (Dunham and Miya, [1957]). Untreated control mice or rats, when placed on the rod, can maintained their equilibrium for a prolonged time period.

[4] = 0.5 h, read-out: scPTZ, minimum dose effective in half or more animals tested, 0.5 h
[5] = 4 h, read-out: scPTZ, minimum dose effective in half or more animals tested, 4 h
[6] = 0.5 h, read-out: MES, minimum dose effective in half or more animals tested, 0.5 h
[7] = 4 h, read-out: MES, minimum dose effective in half or more animals tested, 4 h

Row | SMILES | MES, number of rats protected/number of rats tested, 0.25 h [1] | MES, number of rats protected/number of rats tested, 0.5 h [1] | MES, number of rats protected/number of rats tested, 1 h [1] | MES, number of rats protected/number of rats tested, 2 h [1] | MES, number of rats protected/number of rats tested, 4 h [1] | minimal effective dose [2, 4] [mg/kg] | minimal effective dose [2, 5] [mg/kg] | minimal effective dose [3, 6] [mg/kg] | minimal effective dose [3, 7] [mg/kg] | NT (rotarod), minimum dose neurotoxic in half or more animals tested, 0.5 h (mice (rotarod test); male, CF#1, mouse, in vivo) | dose showing neurotoxicity in the rotarod test (NT) (mice (rotarod test); male, CF#1, mouse, in vivo, ip) [mg/kg] | response comment (adverse sign observed) (mice (rotarod test); mice, i.p., 300 mg/kg)
1 | Cl.O=C(CN1CCOCC1)Nc1cccc(Cl)c1 [Compound 13, N-(3-chlorophenyl)-2-morpholino-acetamide monohydrochloride] | 0/4 | 1/4 | 0/4 | 0/4 | 0/4 | > 300 | > 300 | 100 | 300 | 300 mg/kg | 300 | 
2 | O=C(CN1CCN(Cc2ccccc2)CC1)Nc1cccc(C(F)(F)F)c1 [Compound 22, 2-(4-Benzylpiperazin-1-yl)-N-[3-(trifluoromethyl)phenyl]acetamide] | 1/4 | 1/4 | 1/4 | 1/4 | 1/4 | > 300 | > 300 | 300 | > 300 | 300^33 mg/kg |  | tremors

Reference: paper PMC4491109, “Synthesis and anticonvulsant activity of new N-phenyl-2-(4-phenylpiperazin-1-yl)acetamide derivatives” (Medicinal Chemistry Research, 2015)
